# pIC50: −log10 of the molar value. Like-named read-outs stand apart in the source and are kept apart here.
# How the values were obtained:
# KOPT-K1 cells [1] = assay: Cell cycle status by PI flow cytometry; type: cell-based, human; settings: 10 μM and 20 μM, 24 hours
# Description: Relative DNA content of cells in each of the samples was determined by measuring PI (propidium iodide) staining using flow cytometry. The results are illustrated in FIG. 31A-FIG. 31B.
# Relative DNA content of cells in each of the samples was determined as described above.
# [2] = molecular target: T1, human dopamine receptor D2 (DRD2) (Homo sapiens, UniProt P14416); assay: Dopamine receptor D2 inhibition assay (SRE-luciferase reporter in HEK293T cells); type: cell-based; settings: for inhibition of DRD2 signaling: 10 μM for 3 hours
# T1 construct: expressed in transfected cells; host or cells: HEK293T (pcDNA3 vectors)
# T1 sequence (P14416 whole entry): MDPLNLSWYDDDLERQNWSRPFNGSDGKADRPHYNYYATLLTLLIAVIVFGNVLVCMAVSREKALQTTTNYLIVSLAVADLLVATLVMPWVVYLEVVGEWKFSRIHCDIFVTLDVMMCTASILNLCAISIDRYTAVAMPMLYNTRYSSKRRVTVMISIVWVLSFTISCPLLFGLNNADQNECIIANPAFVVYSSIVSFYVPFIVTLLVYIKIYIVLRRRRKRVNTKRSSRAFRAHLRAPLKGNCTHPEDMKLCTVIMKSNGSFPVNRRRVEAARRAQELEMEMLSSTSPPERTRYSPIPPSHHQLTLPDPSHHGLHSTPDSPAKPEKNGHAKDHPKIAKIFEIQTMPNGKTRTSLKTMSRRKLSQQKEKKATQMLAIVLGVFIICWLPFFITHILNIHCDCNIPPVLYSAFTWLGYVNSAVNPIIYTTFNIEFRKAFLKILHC
# Excerpt: (§1) The human dopamine receptor D2 (DRD2) and modified murine Gq5i cDNAs were inserted into pcDNA3 expression vectors. After verifying the PCR products by DNA sequencing, DRD2, Gq5i and the PathDetect pSRE-Luc Cis-Reporter Plasmid (#219080, Agilent Technologies) were transfected to HEK293T cells. As previously reported, Gq5i enables Gi/o-coupled receptor activity to be detected using a serum response element (SRE)-luciferase reporter gene (See, Conklin et al., Nature 363(6426):274-6 (1993); Al-Fulaij et al., J. Pharmacol. Exp. Ther. 321(1):298-307 (2007)). These cells were starved in FCS-free DMEM medium for six hours before incubating them with 2 μM dopamine hydrochloride (Sigma Aldrich) together with each of the compound at 0, 0.5, 1, 2 and 4 μM for three hours. The reporter activity was measured using Pierce™ Firefly Luciferase Glow Assay Kit (Thermo Fisher Scientific).
# (§2) For IC50 calculation, KOPT-K1 cells were treated with each of the compounds at various concentrations for 72 hours, followed by the determination of viable cell numbers with PrestoBlue® cell viability reagent. For the PP2A phosphatase activity assay, KOPT-K1 cells were treated with each of the compounds at 10 μM for 3 hours before phosphatase activity was measured. Dopamine D2 receptor activity was monitored in HEK293T cells coexpressing the dopamine D2 receptor, modified G protein and SRE luciferase reporter. Cells were treated with each of the compound at 10 μM for 3 hours, then lysed for the luciferase reporter assay.
# as §1, with “D2” for “D2 (DRD2)”, “363(6426):274-276” for “363(6426):274-6”, “0.5” for “0, 0.5, 1, 2 and 4”
# PP2A subunits = assay: Co-immunoprecipitation of PP2A subunits (holoenzyme assembly); design: species or system human; settings: KOPT-K1 cells, 10 μM, 24 hours
# Excerpt: The biochemical activity of iPAP1 was further characterized by addressing whether it acts exclusively on the three identified subunits to mediate the assembly of PP2A, or whether other proteins expressed by T-ALL cells are also required. Using baculovirus vectors, each subunit of PP2A was first expressed with a C-terminal tag in Hi5 insect cells, and then purified the subunit proteins using columns with antibodies against the tags bound to agarose beads (see, Example 5, FIG. 13-FIG. 14). […] PP2A is a unique enzyme consisting of three subunits and it needs to be properly assembled into a holoenzyme before it mediates phosphatase activity. […] The protein lysates were then immunoprecipitated with anti-PPP2CA antibody or normal IgG as a control, and the precipitates were immunoblotted with antibodies specifically detecting each of the PP2A subunits. […] Nuclear and cytoplasmic fractions were separated using NE-PER™ Nuclear and Cytoplasmic Extraction Kit (Thermo Fisher Scientific), and each of the subunits of PP2A was analyzed by western blot. Histone H3 and α tubulin expression levels were used as loading controls for nuclear and cytoplasmic fractions, respectively. […] Lysates were immunoprecipitated using an anti-PPP2CA antibody, and then blotted with antibodies specific for each PP2A subunit. […] The results of a co-immunoprecipitation assay using an anti-PPP2CA antibody for immunoprecipitation in KOPT-K1 cells treated with SMAP at 10 μM or control DMSO for 24 hours before they were lysed for protein extraction are illustrated in FIG. 9B. Lysates were immunoprecipitated using an anti-PPP2CA antibody, and then blotted with antibodies specific for each PP2A subunit.
# PP2A [3] = molecular target: T2, PP2A (Homo sapiens, UniProt P30153+P67775+Q16537); assay: PP2A phosphatase activity in treated KOPT-K1 cells; type: cell-based; settings: KOPT-K1, 10 μM for 3 hours
# T2 construct: are endogenously expressed by KOPTK1 cells; endogenous in cells; host or cells: KOPT-K1 T-ALL cells / lysates
# T2 sequence (P30153 2-589): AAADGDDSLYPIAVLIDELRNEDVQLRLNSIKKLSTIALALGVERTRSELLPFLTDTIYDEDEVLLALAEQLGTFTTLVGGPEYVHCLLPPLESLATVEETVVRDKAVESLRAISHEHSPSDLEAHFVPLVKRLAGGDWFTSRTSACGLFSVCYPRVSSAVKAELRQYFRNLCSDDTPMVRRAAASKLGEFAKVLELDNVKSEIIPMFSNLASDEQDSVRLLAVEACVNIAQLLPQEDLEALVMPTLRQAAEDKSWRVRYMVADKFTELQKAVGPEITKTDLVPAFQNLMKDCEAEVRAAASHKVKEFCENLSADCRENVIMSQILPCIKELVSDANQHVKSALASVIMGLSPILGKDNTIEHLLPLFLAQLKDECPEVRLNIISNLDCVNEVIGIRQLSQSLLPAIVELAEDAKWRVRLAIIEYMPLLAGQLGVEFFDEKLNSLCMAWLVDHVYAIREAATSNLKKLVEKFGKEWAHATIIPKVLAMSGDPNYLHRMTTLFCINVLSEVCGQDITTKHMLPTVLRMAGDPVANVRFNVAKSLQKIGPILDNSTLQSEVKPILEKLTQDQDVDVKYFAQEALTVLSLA
# T2 sequence (P67775 whole entry): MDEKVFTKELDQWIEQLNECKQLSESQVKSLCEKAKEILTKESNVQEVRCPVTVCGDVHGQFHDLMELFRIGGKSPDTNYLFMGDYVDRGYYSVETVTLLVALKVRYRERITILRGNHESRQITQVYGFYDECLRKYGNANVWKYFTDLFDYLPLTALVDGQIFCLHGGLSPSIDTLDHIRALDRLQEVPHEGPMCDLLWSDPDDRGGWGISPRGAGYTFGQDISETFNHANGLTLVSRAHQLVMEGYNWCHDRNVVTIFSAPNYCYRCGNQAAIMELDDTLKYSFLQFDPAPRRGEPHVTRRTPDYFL
# T2 sequence (Q16537 2-467): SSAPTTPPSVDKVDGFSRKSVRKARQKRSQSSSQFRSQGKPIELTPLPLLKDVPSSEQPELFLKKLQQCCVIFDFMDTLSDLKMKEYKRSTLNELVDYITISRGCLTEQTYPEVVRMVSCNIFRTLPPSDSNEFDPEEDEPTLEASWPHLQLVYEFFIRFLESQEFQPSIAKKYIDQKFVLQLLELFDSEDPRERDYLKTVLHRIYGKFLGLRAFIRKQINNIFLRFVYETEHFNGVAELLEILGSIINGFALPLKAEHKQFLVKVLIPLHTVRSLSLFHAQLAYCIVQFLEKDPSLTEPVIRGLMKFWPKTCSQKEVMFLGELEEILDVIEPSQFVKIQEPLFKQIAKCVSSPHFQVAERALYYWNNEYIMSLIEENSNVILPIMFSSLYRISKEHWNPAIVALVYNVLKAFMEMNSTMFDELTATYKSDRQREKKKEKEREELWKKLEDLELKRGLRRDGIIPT
# Description: (§3) Data are presented as means±s.d. (n=3, biological replicates). KO; knock out. **P<0.01, ***P<0.001 by student's t-test.
# as §2
# (§4) For IC50 calculations, KOPT-K1 cells were treated with each of the compound at various concentrations for 72 hours, then their viability was examined by PrestoBlue® Cell Viability Reagent (Thermo Fisher Scientific). […] DRD2 activity was monitored in HEK293T cells expressing DRD2, modified G protein and SRE luciferase reporter. Cells were treated with each of the compounds at 10 μM for three hours, then lysed for luciferase reporter assay. […] The biochemical assays were performed as indicated in Examples 7 and 8.
# PP2A [4] = assay: PP2A phosphatase activity in treated KOPT-K1 cells; type: cell-based, human; settings: KOPT-K1 cells, 10 μM
# Description: as §3, §2, §4
# KOPT-K1 cells [5] = assay: KOPT-K1 cell viability (PrestoBlue), IC50 after 72 hours; type: cell-based, human; settings: for pIC50: 72 hours, PrestoBlue, read-out: IC50 value against KOPT-K1 cells
# Description: as §2
# For IC50 calculations, KOPT-K1 cells were treated with each of the compound at various concentrations for 72 hours, then their viability was examined by PrestoBlue® Cell Viability Reagent (Thermo Fisher Scientific). For PP2A phosphatase activity assay, KOPT-K1 cells were treated with each of the compound at 10 μM for three hours before the activity of PP2A was quantified using PP2A Immunoprecipitation Phosphatase Assay Kit (Merck Millipore®). DRD2 activity was monitored in HEK293T cells expressing DRD2, modified G protein and SRE luciferase reporter. Cells were treated with each of the compounds at 10 μM for three hours, then lysed for luciferase reporter assay. […] The biochemical assays were performed as indicated in Examples 7 and 8.
# [6] = tested on: KOPT-K1 cells with PP2A subunit inactivation; assay: Drug sensitivity of KOPT-K1 sublines with CRISPR-Cas9 PP2A subunit knockout; type: cell-based, human; settings: SMAP 5 μM, 72 hours
# Description: Two gRNAs with different target sequences were designed for each subunit (#1 and #2). Control gRNAs target luciferase gene. […] Data are presented as means±s.d. (n=3-5, biological replicates). ***P<0.001 by Student's t-test (FIG. 3A).
# SMAP sensitivity in KOPT-K1 cells was measured after PP2A subunit inactivation. Only each subunit of PP2A was knocked out by CRISPR-Cas9 with unique gRNAs. […] Two gRNAs with different target sequences were designed for each subunit (#1 and #2). Control gRNAs target luciferase gene. Data are presented as means±s.d. (n=3-5, biological replicates). ***P<0.001 by Student's t-test (FIG. 3B).
# To identify the subunits of PP2A that are essential for the antitumor activity of iPAP1, CRISPR-Cas9 was used to establish a series of sublines of KOPT-K1 T-ALL cells, each lacking one of the 19 specific PP2A subunits (FIG.1A-FIG. 2), and to examine their sensitivity to iPAP1-induced growth inhibition.
# With this panel of PP2A subunit knockout cells in hand, we analyzed the PP2A subunits required for growth suppression by SMAPs, another class of allosteric activators of PP2A (Gutierrez et al., J. Clin. Invest. 124:644-655 (2014); Sangodkar et al., J. Clin. Invest. 127:2081-2090 (2017)). […] Both the PPP2R5E and PPP2R2A regulatory subunits of PP2A were among the most highly expressed in a series of 16 different T-ALL cell lines (FIG. 5A). Thus, the assembly of structurally different heterotrimeric PP2A complexes induced with either iPAP1 or SMAP cannot be attributed to imbalances in cellular expression levels of individual PP2A subunits, but likely stems from differences in the allosteric alterations of the A subunit protein resulting from the binding of these two classes of small molecules, which have different chemical structures.
# [7] = molecular target: tubulin from porcine brain (Sus scrofa, UniProt P02550+P02554); assay: Fluorescence-based tubulin polymerization assay; settings: 3 μM
# Sequence of tubulin from porcine brain (P02550 whole entry): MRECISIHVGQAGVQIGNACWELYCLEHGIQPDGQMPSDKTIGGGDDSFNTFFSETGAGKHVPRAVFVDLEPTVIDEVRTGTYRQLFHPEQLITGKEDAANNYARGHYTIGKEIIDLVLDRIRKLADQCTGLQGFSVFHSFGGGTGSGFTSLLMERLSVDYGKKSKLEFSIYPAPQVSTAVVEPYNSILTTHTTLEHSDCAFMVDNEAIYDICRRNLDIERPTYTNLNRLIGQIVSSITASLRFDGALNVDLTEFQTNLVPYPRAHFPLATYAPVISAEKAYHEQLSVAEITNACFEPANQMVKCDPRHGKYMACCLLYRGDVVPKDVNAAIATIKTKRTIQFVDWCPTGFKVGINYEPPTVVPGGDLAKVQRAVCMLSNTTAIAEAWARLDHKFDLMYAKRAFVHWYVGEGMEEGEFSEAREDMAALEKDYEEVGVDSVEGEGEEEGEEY
# Sequence of tubulin from porcine brain (P02554 whole entry): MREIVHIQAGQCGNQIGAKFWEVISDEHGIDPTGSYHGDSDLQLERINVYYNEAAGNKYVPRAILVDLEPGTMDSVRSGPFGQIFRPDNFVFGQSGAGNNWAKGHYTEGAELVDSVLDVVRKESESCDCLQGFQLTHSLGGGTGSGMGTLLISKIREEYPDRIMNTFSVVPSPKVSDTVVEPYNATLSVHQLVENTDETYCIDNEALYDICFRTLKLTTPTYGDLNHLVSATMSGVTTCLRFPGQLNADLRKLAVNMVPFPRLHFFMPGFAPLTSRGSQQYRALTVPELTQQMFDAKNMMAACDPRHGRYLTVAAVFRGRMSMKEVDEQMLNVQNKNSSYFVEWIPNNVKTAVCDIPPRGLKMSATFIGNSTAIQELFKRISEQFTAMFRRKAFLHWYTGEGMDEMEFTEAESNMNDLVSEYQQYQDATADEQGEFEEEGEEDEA
# Description: Briefly, free tubulin (2 mg/mL) in buffer supplemented with 1 mM GTP and 15% glycerol was employed. Then, the test compounds were added to tubulin solution and changes in the fluorescence intensity (ex=370 nm, em=445 nm) were measured by kinetic reading at 37° C. using SpectraMax® M5 Microplate reader (Molecular Devices LLC).
# KOPT-K1 cells [8] = assay: Microtubule and chromatin staining of cytospins; type: cell-based, human; settings: 0.001 and 0.0001 μM, 24 hours
# [9] = 0.5 μM for three hours with 2 μM dopamine
structure (smiles),measurement,setting,value
"O=S(=O)(N[C@@H]1CCC[C@H](N2c3ccccc3Oc3ccccc32)[C@H]1O)c1ccc(OC(F)(F)F)cc1 [SMAP, reference compound]",cell cycle status,KOPT-K1 cells [1],arrested in G0/G1 phase
same,inhibitory activities on DRD2,[2]; [9],did not show inhibitory activities on DRD2
same,inhibition of DRD2 signaling,[2],lacked DRD2 inhibitory activity
same,PP2A subunits co-immunoprecipitated with anti-PPP2CA antibody,PP2A subunits,"trimeric complex nucleated by SMAP contains PPP2CA, PPP2R1A and PPP2R2A"
same,PP2A activation potential,PP2A [3],"much less potent than iPAP1, iPAP2, iPAP3 or iPAP4 in phosphatase activity"
same,phosphatase activity of PP2A relative to basal level,PP2A [4],up to twice its basal level
same,pIC50,KOPT-K1 cells [5],~5.30
same,PP2A subunits whose knockout gives resistance,[6],"resistant to SMAP treatment only when the PPP2R1A, PPP2CA or PPP2R2A subunit was disrupted"
"O=c1[nH]c2ccccc2n1CCCN1CCC(n2c(=O)[nH]c3cc(Cl)ccc32)CC1 [domperidone, reference compound]",inhibition of DRD2 signaling,[2],strong inhibitors
"C=C[C@@]1(C)CC(=O)[C@]2(O)[C@@]3(C)[C@@H](O)CCC(C)(C)[C@@H]3[C@H](O)[C@H](OC(C)=O)[C@@]2(C)O1 [forskolin, reference compound]",inhibition at 0.5 µM,"[2]; HEK-293T, 0.5 μM for three hours with 2 μM dopamine",~30%
COc1ccc(C(=O)N2c3ccccc3Sc3ccc([N+](=O)[O-])cc32)cc1 [iPAP2],pIC50,"KOPT-K1 cells [5]; Homo sapiens, KOPTK1, 72 h",~6.00
COc1ccc(C(=O)N2c3ccccc3Sc3ccc(C#N)cc32)cc1 [iPAP3],pIC50,"KOPT-K1 cells [5]; Homo sapiens, KOPTK1, 72 h",~6.52
COc1ccc(C(=O)N2c3ccccc3Sc3cc(C#N)ccc32)cc1 [iPAP4],inhibition of DRD2 signaling,[2],very low inhibition of DRD2 signaling
same,PP2A activation potential,PP2A [3],relatively high PP2A activation potential compared to PPZ
same,pIC50,KOPT-K1 cells [5],7.40 to 7.52
same,pIC50,"KOPT-K1 cells [5]; Homo sapiens, KOPTK1, 72 h",~7.52
same,IC50 lower than PPZ,"KOPT-K1 cells [5]; KOPT-K1, 72 hours",~100 fold
same,IC50 lower than iPAP1,"KOPT-K1 cells [5]; KOPT-K1, 72 hours",~10 fold
Cc1ccccc1C(=O)N1c2ccccc2Sc2ccc(Cl)cc21 [iPAP5],inhibitory activities on DRD2,[2]; [9],did not show inhibitory activities on DRD2
"CCN1CCCC1CNC(=O)c1cc(S(N)(=O)=O)ccc1OC (stereo not shown) [sulpiride, reference compound]",inhibition of DRD2 signaling,[2],strong inhibitors
"CC[C@]1(O)C[C@H]2CN(CCc3c([nH]c4ccccc34)[C@@](C(=O)OC)(c3cc4c(cc3OC)N(C=O)[C@H]3[C@@](O)(C(=O)OC)[C@H](OC(C)=O)[C@]5(CC)C=CCN6CC[C@]43[C@@H]65)C2)C1 [vincristine, reference compound]",inhibition of tubulin polymerization,[7],markedly inhibited tubulin polymerization
same,mitotic and microtubule phenotype,KOPT-K1 cells [8],without detectable microtubules
